Reference: ChEMBL document CHEMBL3124744, “4-Functionalized 1,3-diarylpyrazoles bearing benzenesulfonamide moiety as selective potent inhibitors of the tumor associated carbonic anhydrase isoforms IX and XII” (Eur J Med Chem, 2014)

These compounds were tested against Carbonic anhydrase 12 (Homo sapiens, UniProt O43570).
Sequence of Carbonic anhydrase 12 (O43570 whole entry): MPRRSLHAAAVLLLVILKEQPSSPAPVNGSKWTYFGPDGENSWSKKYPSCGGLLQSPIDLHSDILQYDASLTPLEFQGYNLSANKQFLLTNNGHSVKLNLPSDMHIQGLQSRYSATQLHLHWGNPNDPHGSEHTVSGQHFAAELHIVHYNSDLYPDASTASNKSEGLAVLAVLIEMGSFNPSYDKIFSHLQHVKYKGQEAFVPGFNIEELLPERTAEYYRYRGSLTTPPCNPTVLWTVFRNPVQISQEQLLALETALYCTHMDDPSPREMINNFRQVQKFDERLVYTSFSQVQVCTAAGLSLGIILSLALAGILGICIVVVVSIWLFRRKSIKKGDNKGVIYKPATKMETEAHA
Description: Inhibition of human carbonic anhydrase 12-mediated CO2 hydration preincubated for 10 mins by stopped-flow assay

| Ki [nM] | SMILES |
| --- | --- |
| 43.7 | COC(=O)c1cn(-c2ccc(S(N)(=O)=O)cc2)nc1-c1ccc(Br)cc1 |

The compounds below were run against Carbonic anhydrase 9 (Homo sapiens, UniProt Q16790).
Description: Inhibition of human carbonic anhydrase 9-mediated CO2 hydration preincubated for 10 mins by stopped-flow assay

| Ki [nM] | SMILES |
| --- | --- |
| 2.3 | NC(=O)c1cn(-c2ccc(S(N)(=O)=O)cc2)nc1-c1ccc(F)cc1 |
| 17.1 | COC(=O)c1cn(-c2ccc(S(N)(=O)=O)cc2)nc1-c1ccc(Cl)cc1 |
| 49 | NC(=O)c1cn(-c2ccc(S(N)(=O)=O)cc2)nc1-c1ccc([N+](=O)[O-])cc1 |

Continued, compound first:

| SMILES | Ki [nM] |
| --- | --- |
| NC(=O)c1cn(-c2ccc(S(N)(=O)=O)cc2)nc1-c1ccc(Cl)cc1 | 5.2 |
| NC(=O)c1cn(-c2ccc(S(N)(=O)=O)cc2)nc1-c1cccs1 | 2.1 |
| COC(=O)c1cn(-c2ccc(S(N)(=O)=O)cc2)nc1-c1ccc([N+](=O)[O-])cc1 | 5.2 |
